Measured values: the NIST ThermoML archive (doi:10.1016/j.fluid.2015.04.014)
± gives the expanded uncertainty stated by the source.

Details: Crystal; visual observation

Normal melting temperature: 198.00 ± 4 °C
Compound: CC1(C)[C@@H]2CC[C@@]1(CS(=O)(=O)O)C(=O)C2 [(1S)-(+)-10-camphorsulfonic acid]
